Results: PubChem BioAssay (NCI)
Several values for one entry are separate records, joined by “and”; a condition that tells them apart may be missing. Equal entries are not always repeated.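 96-well plates; 48 h exposure; 5 concentrations. Endpoints by linear interpolation between flanking doses. Not reached: highest tested concentration assigned. GI50 marks 50% less growth. At the TGI there is no net growth.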

Tests used:
Assay in all cases: NCI-60 cell line screen, 48 h
MDA-N = test system: MDA-N
CCRF-CEM leukemia = test system: CCRF-CEM leukemia
SF-539 CNS = test system: SF-539 CNS
MALME-3M melanoma = test system: MALME-3M melanoma
A549 NSCLC = test system: A549 NSCLC
786-0 renal = test system: 786-0 renal
NCI-H522 lung = test system: NCI-H522 lung
SF-268 CNS = test system: SF-268 CNS
KM12 colon = test system: KM12 colon
ACHN renal = test system: ACHN renal
SK-MEL-5 melanoma = test system: SK-MEL-5 melanoma
EKVX NSCLC = test system: EKVX NSCLC

Row | Structure (SMILES) | TGI (MDA-N) [µM] | TGI (CCRF-CEM leukemia) [µM] | TGI (SF-539 CNS) [µM] | TGI (MALME-3M melanoma) [µM] | TGI (A549 NSCLC) [µM] | TGI (786-0 renal) [µM] | TGI (NCI-H522 lung) [µM] | TGI (SF-268 CNS) [µM] | TGI (KM12 colon) [µM] | TGI (ACHN renal) [µM] | TGI (SK-MEL-5 melanoma) [µM] | GI50 (KM12 colon) | TGI (EKVX NSCLC) [µM]
1 | CCN(CCCl)c1cc(CN(C)C)cc(NC(=O)c2ccc(C(=O)Nc3ccccc3)cc2)c1 | 0.925 | 1.14 | 2.26 | 0.425 | 11.9 | 0.581 | 0.317 | 13.6 | 2.8 | – | – | – | –
2 | COC1C(OC(C)=O)CC(=O)OC(C)C/C=C/C=C\C(O)C(C)CC(CC=O)C1OC1OC(C)C(OC2CC(C)(O)C(OC(=O)CC(C)C)C(C)O2)C(N(C)C)C1O (configuration not stated) | > 100 | > 100 | > 100 | > 100 | > 100 | > 100 | > 100 | > 100 | > 100 | > 100 | > 100 | 37.9 µM and 85.3 µM | –
3 | COC(=O)C1SC[C@H]2C(=O)N(c3ccccc3)C(=O)N12 (some centres not stated) | > 100 | > 100 | > 100 | > 100 | > 100 | > 100 | > 100 | > 100 | > 100 | > 100 | > 100 | – | > 100
4 | COc1ccc(NC(=S)Nc2c(C)n(C)n(-c3ccccc3)c2=O)cc1 | > 100 | > 100 | > 100 | > 100 | > 100 | > 100 | > 100 | > 100 | > 100 | > 100 | > 100 | – | > 100
5 | NS(=O)(=O)c1ccc(N2C(=O)C(=O)N(c3ccccc3)C2=S)cc1 | > 100 | > 100 | > 100 | > 100 | > 100 | > 100 | > 100 | > 100 | > 100 | > 100 | > 100 | – | > 100
6 | COc1cc(C2SCC(=O)N2NC(=O)c2ccc(NC(C)=O)cc2OC)ccc1O (configuration not stated) | > 100 | > 100 | > 100 | > 100 | > 100 | > 100 | > 100 | 99 | – | > 100 | – | – | > 100
7 | CC1OC(OC2C[C@](O)(C(=O)CBr)Cc3c(O)c4c(c(O)c32)C(=O)c2ccccc2C4=O)C(F)C(O)C1O (some centres not stated) | 44.7 | 3.04 | 30.4 | 16.5 | 30 | > 59.5 | 23.5 | 73.7 | > 84.1 | 7.08 | 24.4 | – | > 100
8 | C=COC(=O)N1C2CCCC(Cl)(C(C)=O)C1CC2 (configuration not stated) | > 100 | > 100 | – | > 100 | > 100 | > 100 | > 100 | > 100 | > 100 | > 100 | > 100 | – | > 100
9 | Cc1c(C#N)c(N)n(C2OC(CO)C(O)C(O)C2O)c(=S)c1C#N (configuration not stated) | > 100 | > 100 | > 100 | > 100 | > 100 | > 100 | > 100 | > 100 | > 100 | > 100 | > 100 | – | > 100
10 | CC(C)(C)OC(=O)N1CCC(NC(=O)NC2CCN(C(=O)OC(C)(C)C)CC2)CC1 | > 100 | > 100 | > 100 | > 100 | > 100 | > 100 | > 100 | > 100 | > 100 | > 100 | – | – | > 100
11 | COc1ccc(C(=O)N(Cc2cccnc2)C(=S)N(Cc2cccnc2)C(=O)c2ccc(OC)cc2)cc1 | > 100 | > 100 | > 100 | > 100 | > 100 | > 100 | > 100 | > 100 | > 100 | > 100 | > 100 | – | > 100
12 | C=CC(C)(C)n1cc(C2=C(O)C(=O)C(c3c(CC=C(C)C)[nH]c4ccccc34)=C(O)C2=O)c2ccccc21 | 4.08 | 8.96 | – | 3.9 | 7.85 | 6.97 | 6.18 | 5.13 | 2.63 | 4.32 | 4.1 | – | 6.01
13 | COc1ccc2c(c1)c(=O)c1c(NCCCN(C)C)ccc3ncn2c31 | 18.8 | 45.3 | 17 | 26 | 14.5 | 14.9 | 21.4 | 16.1 | 15.5 | 16.8 | 24.3 | – | 27
14 | CCNC1=C(NC(=O)CCl)C(=O)c2ccccc2C1=O | 29.2 | 58.1 | 44.5 | 34.9 | 99.6 | > 100 | 32.2 | 32.8 | 32 | 31.9 | 30.3 | – | 29.6
15 | CN(/N=C/c1ccccc1C(=O)O)C1=NCCCCN1 | > 100 | > 100 | > 100 | > 100 | > 100 | > 100 | 36.7 | > 100 | > 100 | > 100 | > 100 | – | > 100
16 | Nc1nc(Cl)c(C=O)c(NCC2(CO)CCC2)n1 | 77 | 34.1 | > 100 | > 100 | > 100 | > 100 | 14.7 | 51.8 | > 100 | > 100 | 31.4 | – | 46.9
17 | C[C@H]1[C@H](C)CC[C@]2(C(=O)OC3OC(CO)C(O)C(O)C3O)CC[C@]3(C)C(=CC[C@@H]4[C@@]5(C)C[C@@H](O)[C@@H]6OC(=O)c7cc(O)c(O)c(O)c7-c7c(cc(O)c(O)c7O)C(=O)OC[C@]6(CO)[C@@H]5CC[C@]43C)[C@H]12 (some centres not stated) | 51.1 | 69.2 | > 100 | > 100 | > 100 | 32.9 | 37.3 | > 100 | > 76.3 | > 100 | > 100 | – | > 100
18 | Cc1ccc2c(=O)c(C(=O)NNC(=S)NC3CCCCC3)c[nH]c2n1 | > 100 | > 100 | – | > 100 | > 100 | > 100 | > 100 | > 100 | > 100 | > 100 | > 100 | – | > 100
